# Read-outs that look alike come from different tables or passages of the source. Where a SMILES comes first, the peptide text is derived from it.
# How the values were obtained:
# Myzus persicae = conditions: unformulated peptide; leaf dip; mortality assessed at 72, 96 and 120 hours; compared to vehicle and Spirotetramat (FIGS. 6 and 7)
# Procedure: Dip a 2.5 cm leaf disc into 3 ml of treatment solution allowing the treatment to coat the leaf. Leave the disc to dry for 1 hour and place onto the set agar. Place insects (aphids) onto each of the leaf discs. Each unit is sealed with a close-fitting, ventilated lid. Place the agar dishes in a small plastic tray lined with moist tissue paper and ensure the water trays in the bottom of the incubator are filled with clean water and place within the incubator. An assessment of mortality is made at 72, 96 and 120 hours. Leaf dip assays were performed with unformulated SB—P-46, and compared to a negative control vehicle and a current commercial insecticide Spirotetramat.
# Aphis gossypii = conditions: Greece; cotton; unformulated; counted 3 days following application (FIG. 14)
# Excerpt: (§1) The data has been processed in the ARM Field Trials software under license.
# AgriScience conducted a field trial in Greece, investigating the efficacy of insecticidal peptides on aphids on cotton crop.
# Bumblebee = experiment: Bee oral toxicity test adapted from OECD Test No. 247 (Bumblebee, Acute Oral Toxicity Test); type: in vivo; conditions: after 96 hours of application, compared to Imidacloprid (FIG. 10)
# Procedure: Bee oral testing protocol was carried out adapted from OECD Test No. 247: Bumblebee, Acute Oral Toxicity Test. The toxicity of SB—P-46 was compared with a negative control of sucrose or vehicle, and with a current commercial insecticide Imidacloprid.
# [1] = system: Amrasca biguttula (leaf hopper); conditions: unformulated; 3 and 7 days after application (FIG. 16)
# Excerpt: as §1
# Aphis fabae = conditions: unformulated; for reduction in Aphis fabae numbers as a percentage of untreated control crop: vining peas
# Excerpt: as §1
smiles,measurement,setting,value
"CC(C)C[C@H](NC(=O)[C@H](CCCNC(=N)N)NC(=O)[C@@H]1CCCN1C(=O)[C@H](CO)NC(=O)[C@H](Cc1ccccc1)NC(=O)[C@@H]1CCCN1C(=O)[C@@H]1CCCN1C(=O)[C@H](CO)NC(=O)[C@H](Cc1ccc(O)cc1)NC(=O)[C@@H]1CCCN1C(=O)[C@@H]1CCCN1C(=O)[C@@H](N)CO)C(N)=O [SB—P-46, [Hy]-SPPYSPPFSPRL-[NH2]] (H-SPPYSPPFSPRL-NH2)",activity against Myzus persicae (mortality),Myzus persicae,good activity
same,reduction in Aphis gossypii numbers as a percentage of untreated control crop,Aphis gossypii,close efficacy to the conventional pesticide equivalent tested
same,toxicity to bees (% survival),Bumblebee,far lower toxicity
same,activity against naturally infested Amrasca biguttula (leaf hopper),[1],acted comparably to Flipper insecticide
same,reduction in Aphis fabae numbers as a percentage of untreated control crop,"Aphis fabae; Field trial 1, Chatteris location, counted 14 days following application (FIG. 11)",performed comparably to the conventional insecticides Stealth and Teppeki
same,reduction in Aphis fabae numbers as a percentage of untreated control crop,"Aphis fabae; Wigtoft location, counted 4 days following application (FIG. 12)",similarly efficacious activity
same,activity against naturally infested Aphis fabae,"Aphis fabae; further field trials, 4 and 8 days after application (FIG. 15)",acted comparably to Hallmark Zeon insecticide
same,reduction in Aphis fabae numbers as a percentage of untreated control crop,"Aphis fabae; third PGRO trial (slot trial), Holbeach location, counted 7 days following application, low aphid infestation (FIG. 13)",performed as efficaciously as the conventional pesticides tested

# Reference: patent US12281143B1, “Insect neuropeptides 1” (Solasta Bio Limited, priority 2023, dated 2025)
